Assay results taken from patent US8133849B2, “Herbicidal compounds” (Syngenta Limited, priority 2007, dated 2012).

Key:
Test in all cases: Example B2 herbicidal action, post-emergence, pots in glasshouse, damage score 0-10
Type in all cases: in vivo
Settings in all cases: application post-emergence, rate 1000 g/ha, evaluated after 13 days
[1] = system: Setaria faberi
Method: (§1) Seeds of a variety of test species were sown in standard soil in pots. After 8 days cultivation (post-emergence) under controlled conditions in a glasshouse (at 24/16° C., day/night; 14 hours light; 65% humidity), the plants were sprayed with an aqueous spray solution derived from the formulation of the technical active ingredient in acetone/water (50:50) solution containing 0.5% Tween 20 (polyoxyethelyene sorbitan monolaurate, CAS RN 9005-64-5). The test plants were then grown in a glasshouse under controlled conditions in a glasshouse (at 24/16° C., day/night; 14 hours light; 65% humidity) and watered twice daily. After 13 days, the test was evaluated (10=total damage to plant; 0=no damage to plant).

[2] = system: Echinochloa crus-galli
Method: as §1

[3] = system: Amaranthus retroflexus
Method: as §1

[4] = system: Solanum nigrum
Method: as §1

[5] = system: Ipomea hederaceae
Method: as §1

| Structure (SMILES) | SETFA damage score (10=total damage to plant; 0=no damage to plant) [1] | ECHCG damage score (10=total damage to plant; 0=no damage to plant) [2] | AMARE damage score (10=total damage to plant; 0=no damage to plant) [3] | SOLNI damage score (10=total damage to plant; 0=no damage to plant) [4] | IPOHE damage score (10=total damage to plant; 0=no damage to plant) [5] |
| --- | --- | --- | --- | --- | --- |
| CCN1c2nccnc2C(OC(=O)C(C)C)=C(c2cc(C(F)(F)F)ccc2Br)S1(=O)=O [Compound C70] | 1 | 7 | 7 | 8 | 10 |
| CC(C)C(=O)OC1=C(c2cc(C(F)(F)F)ccc2Cl)S(=O)(=O)N(CCCl)c2nccnc21 [Compound C123] | 1 | 2 | 4 | 10 | 4 |
| COc1ccc(F)c(C2=C(OC(=O)C(C)C)c3nccnc3N(CC(F)F)S2(=O)=O)c1 [Compound C138] | 0 | 1 | 0 | 7 | 2 |
| CCSC(=O)OC1=C(c2c(C(F)(F)F)ccc(Cl)c2Cl)S(=O)(=O)N(CC(F)F)c2nccnc21 [Compound C135] | 10 | 7 | 8 | 10 | 8 |
| CCOC(=O)OC1=C(c2cc(C)ccc2C(F)(F)F)S(=O)(=O)N(CC(F)F)c2nccnc21 [Compound C147, carbonic acid 1-(2,2-difluoro-ethyl)-3-(5-methyl-2-trifluoromethyl-phenyl)-2,2-dioxo-1,2-dihydro-2-λ-6-thia-1,5,8-triaza-naphthalen-4-yl ester ethyl ester] | 3 | 2 | 1 | 9 | 9 |
| CSC(=O)OC1=C(c2ccc(Br)cc2C(F)(F)F)S(=O)(=O)N(CC(F)F)c2nccnc21 [Compound C133] | 7 | 8 | 10 | 10 | 8 |
| C=CCN1c2nccnc2C(OC(=O)SCC)=C(c2cc(Cl)ccc2C(F)(F)F)S1(=O)=O [Compound C119] | 3 | 5 | 3 | 6 | 3 |
| O=S1(=O)C(c2cc(Cl)ccc2C(F)(F)F)=C(O)c2nccnc2N1CC(F)F [Compound D53] | 6 | 6 | 8 | 10 | 7 |
| CC(C)C(=O)OC1=C(c2ccccc2Br)S(=O)(=O)N(CC(F)F)c2nccnc21 [Compound C39] | 4 | 4 | 9 | 10 | 9 |
| CSC(=O)OC1=C(c2c(Cl)cccc2C(F)(F)F)S(=O)(=O)N(CC(F)F)c2nccnc21 [Compound C129] | 9 | 9 | 10 | 10 | 9 |
| CCSC(=O)OC1=C(c2c(Cl)ccc(OC)c2F)S(=O)(=O)N(CC(F)F)c2nccnc21 [Compound C145] | 2 | 5 | 0 | 8 | 8 |
| CSC(=O)OC1=C(c2ccc(C(F)(F)F)cc2C(F)(F)F)S(=O)(=O)N(CC(F)F)c2nccnc21 [Compound C131] | 2 | 4 | 9 | 10 | 9 |
